# Results published in the supplement of paper PMC11208160.
# Test: recombinant barcode read abundance after kanamycin selection (control-corrected) (log10(CPM+1)); higher = more efficient recombination; sequences stand for … in AGTGCAGAGAAAATCGGCCAGTTTTCTCTGCCTGCAGTCCGCATGCCGT…AGATTTATGCAGCGGACTGCCTTTCTCCCAAAGTGATAAACCGGACAGTATCATGGACCGGTTTTCCCGGTAATCCGTATTTGCAAGGTTGGTTTCACT; site = the 11-nt target
# Method in brief: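 Recombination efficiency in this pooled E. coli screen uses counts per million of barcodes at recombinant junctions, averaged and corrected against the control. The reported form is log10(CPM+1). Two replicates were plated on chloramphenicol/ampicillin LB agar as control and two on chloramphenicol/ampicillin/kanamycin with 0.1 mM IPTG.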
# 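Further: IS621 recombinase and bridge RNA in Escherichia coli cells.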
row,Sequence,recombinant barcode read abundance (log10)
1,ATCAGTACTTGGGTTCTAACCTGTTGCCT (site ATCAGTACTAG),0.307
2,ATCAGTACTTGGGTTCTAACCTGTTGCCT (site CTGAGTACTAG),0.242
3,ATCCAGGCTTGGGTTCTAACCTGTTGCGG (site ATCCAGGCTCC),2.07
4,ATCCAGGCTTGGGTTCTAACCTGTTGCGG (site ATTCAGACTCC),0.00907
5,ATCGGAGCTTGGGTTCTAACCTGTTGCTG (site ATCGGAGCTCA),0.991
6,ATCGGAGCTTGGGTTCTAACCTGTTGCTG (site ATCGGAGCTCC),0.67
7,ATCGGAGCTTGGGTTCTAACCTGTTGCTG (site ATCGGAGCTCG),0.455
8,ATCGGAGCTTGGGTTCTAACCTGTTGCTG (site ATCGGAGCTCT),0.627
9,ATCGGATCTTGGGTTCTAACCTGTTGCCG (site ATCGGATCTCG),0.782
10,ATCGGATCTTGGGTTCTAACCTGTTGCCG (site CATAACCCTAT),0.349
11,ATCGGGCCTTGGGTTCTAACCTGTTGCCT (site ATCGGGCCTAG),0.47
12,ATCGGGCCTTGGGTTCTAACCTGTTGCCT (site CTCGGGCCTAG),0.0724
13,ATCGGGCCTTGGGTTCTAACCTGTTGCCT (site GTCGGGCCTAG),0.582
14,ATCGGGCCTTGGGTTCTAACCTGTTGCCT (site TTCGGGCCTAG),0.0744
15,ATCGTAGCTTGGGTTCTAACCTGTTGCCA (site ACCCTAGCTTG),0.497
16,ATCGTAGCTTGGGTTCTAACCTGTTGCCA (site ATCGTAGCTTG),0.228
17,ATCGTTCCTTGGGTTCTAACCTGTTGCGT (site ACCGGTCCTAC),0.0508
18,ATCGTTCCTTGGGTTCTAACCTGTTGCGT (site ATCGTTCCTAC),0.411
19,ATCTTACCTTGGGTTCTAACCTGTTGCCT (site ATCTTAACTAG),0.069
20,ATCTTACCTTGGGTTCTAACCTGTTGCCT (site ATCTTACCTAG),0.681
21,ATCTTACCTTGGGTTCTAACCTGTTGCCT (site ATCTTAGCTAG),0.0332
22,ATCTTACCTTGGGTTCTAACCTGTTGCCT (site ATCTTATCTAG),0.109

row,Sequence,recombinant barcode read abundance (log10)
1,ATGAAGCCTTGGGTTCTAACCTGTTGCCT (site ATGAAGCCTAG),1.87
2,ATGAAGCCTTGGGTTCTAACCTGTTGCCT (site CTGAAGCCTAG),0.053
3,ATGAAGCCTTGGGTTCTAACCTGTTGCCT (site GTGAAGCCTAG),0.177
4,ATGAAGCCTTGGGTTCTAACCTGTTGCCT (site TTGAAGCCTAG),0.503
5,ATGAGCTCTTGGGTTCTAACCTGTTGCTA (site ATGAGCTCTTA),1.12
6,ATGAGCTCTTGGGTTCTAACCTGTTGCTA (site ATGAGGTCTGA),0.0495
7,ATGAGTCCTTGGGTTCTAACCTGTTGCAA (site ATGAGTCCTTT),1.25
8,ATGAGTCCTTGGGTTCTAACCTGTTGCAA (site TGAGAGACTAC),0.0172
9,ATGATACCTTGGGTTCTAACCTGTTGCCT (site AAGATACCTAG),0.157
10,ATGATACCTTGGGTTCTAACCTGTTGCCT (site ATGATACCTAG),1.84
11,ATGCAAACTTGGGTTCTAACCTGTTGCCT (site ATGCAAACTAG),1.31
12,ATGCAAACTTGGGTTCTAACCTGTTGCCT (site ATGCAACCTAG),0.0759
13,ATGCAAACTTGGGTTCTAACCTGTTGCCT (site ATGCAAGCTAG),0.653
14,ATGCAAACTTGGGTTCTAACCTGTTGCCT (site ATGCAATCTAG),0.151
15,ATGCACGCTTGGGTTCTAACCTGTTGCCT (site ATGCACGCTAG),1.81
16,ATGCACGCTTGGGTTCTAACCTGTTGCCT (site TATATGACTCC),0.036
17,ATGCCAACTTGGGTTCTAACCTGTTGCCT (site ATGCCAACTAG),0.327
18,ATGCCAACTTGGGTTCTAACCTGTTGCCT (site ATGCCCACTAG),0.059
19,ATGCCAACTTGGGTTCTAACCTGTTGCCT (site ATGCCGACTAG),0.204
20,ATGCCAACTTGGGTTCTAACCTGTTGCCT (site ATGCCTACTAG),0.00977
21,ATGCCCTCTTGGGTTCTAACCTGTTGCCT (site ATGACCTCTAG),0.688
22,ATGCCCTCTTGGGTTCTAACCTGTTGCCT (site ATGCCCTCTAG),2.07

row,Sequence,recombinant barcode read abundance (log10)
1,ATGCCCTCTTGGGTTCTAACCTGTTGCCT (site ATGGCCTCTAG),0.0962
2,ATGCCCTCTTGGGTTCTAACCTGTTGCCT (site ATGTCCTCTAG),0.0521
3,ATGCCTACTTGGGTTCTAACCTGTTGCCT (site ATGCCAACTAG),0.0174
4,ATGCCTACTTGGGTTCTAACCTGTTGCCT (site ATGCCCACTAG),0.0532
5,ATGCCTACTTGGGTTCTAACCTGTTGCCT (site ATGCCGACTAG),0.0715
6,ATGCCTACTTGGGTTCTAACCTGTTGCCT (site ATGCCTACTAG),0.337
7,ATGCCTCCTTGGGTTCTAACCTGTTGCTT (site ATGCCTCCTAA),0.165
8,ATGCCTCCTTGGGTTCTAACCTGTTGCTT (site GAAGGAGCTCT),0.07
9,ATGCGTTCTTGGGTTCTAACCTGTTGCCT (site AGGTGTTCTAG),0.203
10,ATGCGTTCTTGGGTTCTAACCTGTTGCCT (site ATGCGTTCTAG),1.73
11,ATGCTTGCTTGGGTTCTAACCTGTTGCCA (site ATGCTTGCTTG),0.187
12,ATGCTTGCTTGGGTTCTAACCTGTTGCCA (site TGTGCAACTCA),0.299
13,ATGGATACTTGGGTTCTAACCTGTTGCCT (site ATGGATACTAG),2.26
14,ATGGATACTTGGGTTCTAACCTGTTGCCT (site ATGTACACTAG),0.22
15,ATGGATCCTTGGGTTCTAACCTGTTGCGT (site AGGGATCCTAC),0.758
16,ATGGATCCTTGGGTTCTAACCTGTTGCGT (site ATGGATCCTAC),2.77
17,ATGGCCTCTTGGGTTCTAACCTGTTGCCT (site ATGACCTCTAG),0.822
18,ATGGCCTCTTGGGTTCTAACCTGTTGCCT (site ATGCCCTCTAG),0.0852
19,ATGGCCTCTTGGGTTCTAACCTGTTGCCT (site ATGGCCTCTAG),2.2
20,ATGGCCTCTTGGGTTCTAACCTGTTGCCT (site ATGTCCTCTAG),0.0804
21,ATGGGCCCTTGGGTTCTAACCTGTTGCTA (site ATGGGCCCTAA),0.362
22,ATGGGCCCTTGGGTTCTAACCTGTTGCTA (site ATGGGCCCTCA),1.17
